This is an account of results in patent US12617797B2, “Substituted pyrazolo [1,5-a]pyrimidines having multimodal activity against pain” (ESTEVE PHARMACEUTICALS, S.A., priority 2020, dated 2026).

pKi: −log10 of the molar value.

The target of assay [1] is Human α2δ-1 subunit of Cav2.2 calcium channel (Homo sapiens, UniProt P54289). Kind of assay: Human α2δ-1 subunit of Cav2.2 calcium channel assay ([3H]-gabapentin binding). The following applies: binding to the α2δ-1 subunit of voltage-gated calcium channels expressed as Ki; + also covers inhibition between 1% and 50%. The procedure, abridged: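 Displacement of 15 nM [3H]-gabapentin from human α2δ-1-enriched membranes (Hepes-KOH 10 mM, pH 7.4; 27 °C, 60 min) read by filter binding and radioactivity counting. Values are single-point % inhibition (1 or 10 μM) or five-point Ki; 10 μM pregabalin sets NSB.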
Human α2δ-1 subunit of Cav2.2 calcium channel, sequence (P54289 25-1103): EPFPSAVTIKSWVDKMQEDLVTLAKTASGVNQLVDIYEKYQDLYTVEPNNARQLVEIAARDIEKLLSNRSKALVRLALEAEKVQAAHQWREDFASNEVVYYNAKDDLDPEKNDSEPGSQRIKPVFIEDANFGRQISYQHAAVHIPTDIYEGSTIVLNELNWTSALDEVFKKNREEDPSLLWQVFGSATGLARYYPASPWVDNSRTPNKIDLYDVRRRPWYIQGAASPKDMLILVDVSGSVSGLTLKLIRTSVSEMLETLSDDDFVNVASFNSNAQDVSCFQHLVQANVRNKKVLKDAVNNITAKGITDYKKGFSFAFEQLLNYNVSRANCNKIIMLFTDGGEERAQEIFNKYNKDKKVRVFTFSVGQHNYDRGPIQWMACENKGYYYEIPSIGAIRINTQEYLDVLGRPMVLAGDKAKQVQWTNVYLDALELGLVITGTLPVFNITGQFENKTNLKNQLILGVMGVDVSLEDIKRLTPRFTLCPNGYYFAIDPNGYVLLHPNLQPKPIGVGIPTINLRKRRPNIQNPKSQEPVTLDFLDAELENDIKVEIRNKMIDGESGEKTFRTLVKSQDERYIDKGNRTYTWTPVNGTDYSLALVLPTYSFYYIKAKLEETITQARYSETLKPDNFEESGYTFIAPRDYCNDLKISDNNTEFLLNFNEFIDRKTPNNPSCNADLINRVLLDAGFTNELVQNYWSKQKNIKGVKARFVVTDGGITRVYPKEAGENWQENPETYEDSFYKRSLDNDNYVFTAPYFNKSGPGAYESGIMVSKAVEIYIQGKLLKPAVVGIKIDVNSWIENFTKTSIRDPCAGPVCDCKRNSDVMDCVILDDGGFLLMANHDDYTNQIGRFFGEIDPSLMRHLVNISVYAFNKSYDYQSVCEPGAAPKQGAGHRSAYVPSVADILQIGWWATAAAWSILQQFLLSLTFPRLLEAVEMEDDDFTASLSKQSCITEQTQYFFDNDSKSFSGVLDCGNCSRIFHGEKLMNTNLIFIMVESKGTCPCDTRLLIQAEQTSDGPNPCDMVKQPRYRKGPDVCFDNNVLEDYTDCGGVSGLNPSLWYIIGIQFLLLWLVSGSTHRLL

The target of assay [2] is T1, Human σ1 receptor (Homo sapiens, UniProt Q99720).
T1 construct: expressed in transfected cells; host or cells: HEK-293
T1 sequence (Q99720 whole entry): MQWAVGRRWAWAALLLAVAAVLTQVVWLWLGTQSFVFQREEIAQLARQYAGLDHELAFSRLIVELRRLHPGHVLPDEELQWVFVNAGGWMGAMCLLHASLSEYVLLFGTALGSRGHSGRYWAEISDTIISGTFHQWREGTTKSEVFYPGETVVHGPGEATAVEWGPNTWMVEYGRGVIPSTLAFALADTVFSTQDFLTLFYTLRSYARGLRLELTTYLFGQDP
The experiment in a line: Human σ1 receptor radioligand assay ([3H](+)-pentazocine binding, transfected HEK-293 membranes). As to conditions: binding to σ1 receptor expressed as Ki; + also covers inhibition between 1% and 50%; read-out: σ-1 binding. Summed up: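 Ki was derived from five test concentrations, or % inhibition was measured at a single 1 or 10 μM dose, against 5 nM [3H](+)-pentazocine. Incubation was 120 min at 37° C in 50 mM Tris-HCl pH 8 with 7 μg HEK-293 membranes, and 10 μM haloperidol set non-specific binding. Bound radioactivity was counted after filtration.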

For the compound `COc1cnccc1-c1cc2nccc(C3CCCN(Cc4ccccc4)C3)n2n1` (centres unmarked) [Example 33, 7-(1-Benzylpiperidin-3-yl)-2-(3-methoxypyridin-4-yl)pyrazolo[1,5-a]pyrimidine], the values for the pKi in assay [1] and in assay [2] were 5.30 to 6.30 and less than 6.00, respectively.

On to `Cc1nn2c([C@@H]3CCCN(Cc4ccccc4)C3)ccnc2c1CNCC1CCOCC1` [Example 205, (R)-1-(7-(1-benzylpiperidin-3-yl)-2-methylpyrazolo[1,5-a]pyrimidin-3-yl)-N-((tetrahydro-2H-pyran-4-yl)methyl)methanamine], for which the pKi in assay [1] is less than 5.30; in assay [2], more than 6.30.

For `Cc1nn2c([C@H]3CCCN(Cc4ccccc4)C3)ccnc2c1CNC[C@H]1CCN(C)C(=O)C1` [Example 244, (S)-4-((((7-((S)-1-Benzylpiperidin-3-yl)-2-methylpyrazolo[1,5-a]pyrimidin-3-yl)methyl)amino)methyl)-1-methylpiperidin-2-one], the pKi in assay [1] was 5.30 to 6.30; in assay [2], less than 6.00.

On to `Clc1ccc(CN2CCCC(c3ccnc4c(CNCC5CCOCC5)c(Br)nn34)C2)cc1` (centres unmarked) [Example 120, 1-(2-Bromo-7-(1-(4-chlorobenzyl)piperidin-3-yl)pyrazolo[1,5-a]pyrimidin-3-yl)-N-((tetrahydro-2H-pyran-4-yl)methyl)methanamine], for which the pKi in assay [1] and in assay [2] was more than 6.30 each time.

`Cc1nn2c(C3CCCN(CC4CCOCC4)C3)ccnc2c1CNCC1CCOCC1` (centres unmarked) [Example 185, 1-(2-Methyl-7-(1-((tetrahydro-2H-pyran-4-yl)methyl)piperidin-3-yl)pyrazolo[1,5-a]pyrimidin-3-yl)-N-((tetrahydro-2H-pyran-4-yl)methyl)methanamine]: the pKi is less than 5.30 in assay [1] and less than 6.00 in assay [2].

Turning to `Cc1cc(C2CCCN(Cc3ccccc3)C2)n2nc(C)c(-c3ccncc3)c2n1` (centres unmarked) [Example 59, 7-(1-Benzylpiperidin-3-yl)-2,5-dimethyl-3-(pyridin-4-yl)pyrazolo[1,5-a]pyrimidine], the pKi in assay [1] is 5.30 to 6.30; in assay [2] it was less than 6.00.

For the compound `CCNCc1c(C)nn2c(C3CCCN(Cc4ccc(Cl)cc4)C3)ccnc12` (centres unmarked) [Example 155, N-((7-(1-(4-Chlorobenzyl)piperidin-3-yl)-2-methylpyrazolo[1,5-a]pyrimidin-3-yl)methyl)ethanamine], the pKi in assay [1] is 5.30 to 6.30; in assay [2] it was more than 6.30.

Take `Cc1nn2c(C3CCCN(Cc4ccc(F)c(F)c4)C3)ccnc2c1CNCC1CCOCC1` (centres unmarked) [Example 182, 1-(7-(1-(3,4-Difluorobenzyl)piperidin-3-yl)-2-methylpyrazolo[1,5-a]pyrimidin-3-yl)-N-((tetrahydro-2H-pyran-4-yl)methyl)methanamine]: the pKi in assay [1] and in assay [2] was more than 6.30 each time.

In the case of `COc1ccc(-c2cc3nccc(C4CCCN(Cc5ccccc5)C4)n3n2)cn1` (centres unmarked) [Example 28, 7-(1-Benzylpiperidin-3-yl)-2-(6-methoxypyridin-3-yl)pyrazolo[1,5-a]pyrimidine], the pKi was 5.30 to 6.30 in assay [1] and less than 6.00 in assay [2].

Turning to `Cc1nn2c(CC3CCCN(Cc4ccc(Cl)cc4)C3)ccnc2c1-c1ccncc1` (centres unmarked) [Example 249, 7-((1-(4-Chlorobenzyl)piperidin-3-yl)methyl)-2-methyl-3-(pyridin-4-yl)pyrazolo[1,5-a]pyrimidine], the pKi in assay [1] is less than 5.30; in assay [2] it was more than 6.30.

As to `Cc1nn2c(C3CCCN(Cc4ccc(Cl)cc4)C3)ccnc2c1CN(CC1CCOCC1)C(C)C` (centres unmarked) [Example 232, N-((7-(1-(4-Chlorobenzyl)piperidin-3-yl)-2-methylpyrazolo[1,5-a]pyrimidin-3-yl)methyl)-N-((tetrahydro-2H-pyran-4-yl)methyl)propan-2-amine], the pKi in assay [1] was less than 5.30; in assay [2], more than 6.30.

With `CCOc1cc(-c2c(C)nn3c(C4CCCN(Cc5ccc(Cl)cc5)C4)ccnc23)ccn1` (centres unmarked) [Example 136, 7-(1-(4-Chlorobenzyl)piperidin-3-yl)-3-(2-ethoxypyridin-4-yl)-2-methylpyrazolo[1,5-a]pyrimidine], the results for the pKi in assay [1] and in assay [2] were less than 5.30 and less than 6.00, respectively.

In the case of `Cc1nn2c([C@H]3CCCN(Cc4ccc(Cl)cc4)C3)ccnc2c1CN[C@H](C)C1CCOCC1` [Example 226, (R)—N-((7-((S)-1-(4-chlorobenzyl)piperidin-3-yl)-2-methylpyrazolo[1,5-a]pyrimidin-3-yl)methyl)-1-(tetrahydro-2H-pyran-4-yl)ethan-1-amine], the values for the pKi in assay [1] and in assay [2] were 5.30 to 6.30 and more than 6.30, respectively.

For `CCOc1ccc(-c2c(C)nn3c(C4CCCN(Cc5ccccc5)C4)ccnc23)cc1` (centres unmarked) [Example 45, 7-(1-Benzylpiperidin-3-yl)-3-(4-ethoxyphenyl)-2-methylpyrazolo[1,5-a]pyrimidine], the pKi was less than 5.30 in assay [1] and 6.00 to 6.30 in assay [2].

`Cc1nn2c(C3CCCN(Cc4ccccc4)C3)ccnc2c1COCc1ccccc1` (centres unmarked) [Example 101, 3-((Benzyloxy)methyl)-7-(1-benzylpiperidin-3-yl)-2-methylpyrazolo[1,5-a]pyrimidine]: the pKi is less than 5.30 in assay [1] and more than 6.30 in assay [2].

Turning to `Cc1nn2c(C3CCCN(Cc4ccc(Cl)cc4)C3)ccnc2c1CN1CCS(=O)(=O)CC1` (centres unmarked) [Example 168, 4-((7-(1-(4-Chlorobenzyl)piperidin-3-yl)-2-methylpyrazolo[1,5-a]pyrimidin-3-yl)methyl)thiomorpholine 1,1-dioxide], the pKi in assay [1] is 5.30 to 6.30; in assay [2] it was 6.00 to 6.30.

With `Cc1cc(C2CCCN(Cc3ccc(Cl)cc3)C2)n2nc(C)c(CNCC3CCOCC3)c2n1` (centres unmarked) [Example 238, 1-(7-(1-(4-Chlorobenzyl)piperidin-3-yl)-2,5-dimethylpyrazolo[1,5-a]pyrimidin-3-yl)-N-((tetrahydro-2H-pyran-4-yl)methyl)methanamine], the pKi in assay [1] was 5.30 to 6.30; in assay [2], more than 6.30.

Take `COc1nn2c(C3CCCN(Cc4ccccc4)C3)ccnc2c1CNCC1CCOCC1` (centres unmarked) [Example 248, 1-(7-(1-Benzylpiperidin-3-yl)-2-methoxypyrazolo[1,5-a]pyrimidin-3-yl)-N-((tetrahydro-2H-pyran-4-yl)methyl)methanamine]: the pKi in assay [1] is 5.30 to 6.30; in assay [2], 6.00 to 6.30.

Turning to `Clc1ccc(CN2CCCC(c3ccnc4c(CNCC5CCOCC5)c(Cl)nn34)C2)cc1` (centres unmarked) [Example 190, 1-(2-Chloro-7-(1-(4-chlorobenzyl)piperidin-3-yl)pyrazolo[1,5-a]pyrimidin-3-yl)-N-((tetrahydro-2H-pyran-4-yl)methyl)methanamine], the pKi in assay [1] and in assay [2] was more than 6.30 each time.

Consider `Clc1ccc(CN2CCCC(c3ccnc4cc(Br)nn34)C2)cc1` (centres unmarked) [Example 110, 2-Bromo-7-(1-(4-chlorobenzyl)piperidin-3-yl)pyrazolo[1,5-a]pyrimidine], for which the pKi in assay [1] was less than 5.30; in assay [2], 6.00 to 6.30.

Turning to `COc1cncc(-c2cc3nccc(C4CCCN(Cc5ccccc5)C4)n3n2)c1` (centres unmarked) [Example 31, 7-(1-Benzylpiperidin-3-yl)-2-(5-methoxypyridin-3-yl)pyrazolo[1,5-a]pyrimidine], the figures for the pKi in assay [1] and in assay [2] were 5.30 to 6.30 and less than 6.00, respectively.

`COc1ccc(CCNCc2c(C)nn3c(C4CCCN(Cc5ccc(Cl)cc5)C4)ccnc23)cc1` (centres unmarked) [Example 154, N-((7-(1-(4-Chlorobenzyl)piperidin-3-yl)-2-methylpyrazolo[1,5-a]pyrimidin-3-yl)methyl)-2-(4-methoxyphenyl)ethan-1-amine]: the pKi in assay [1] is 5.30 to 6.30; in assay [2], 6.00 to 6.30.
